Active and inactive are the calls of the source. The calls are words filed in the database; no cut-off is given here.
What was measured:
Homo sapiens [1] = species: Homo sapiens; experiment: Neutralization of enoxaparin sodium in human poor platelet plasma at 10 to 50 ug/ml by aPTT assay relative to control; format: cell-free; conditions: dose 10-50 µg/ml
[2] = Acute toxicity in iv dosed ICR mouse assessed as maximum tolerated dose measured after 7 days; format: organism-based; conditions: in vivo, time 7 day
Homo sapiens [3] = species: Homo sapiens; experiment: Neutralization of unfractionated heparin in human poor platelet plasma at 10 to 50 ug/ml by aPTT assay relative to control; format: cell-free; conditions: dose 10-50 µg/ml
Bos taurus [4] = species: Bos taurus; experiment: Neutralization of unfractionated heparin in bovine plasma at 10 to 60 ug/ml by aPTT assay; format: cell-free; conditions: dose 10-60 µg/ml
Bos taurus [5] = species: Bos taurus; experiment: Neutralization of nadroparin calcium in bovine plasma at 10 to 60 ug/ml by aPTT assay; format: cell-free; conditions: dose 10-60 µg/ml
Bos taurus [6] = species: Bos taurus; experiment: Neutralization of enoxaparin sodium in bovine plasma at 10 to 60 ug/ml by aPTT assay relative to control; format: cell-free; conditions: dose 10-60 µg/ml
Bos taurus [7] = species: Bos taurus; experiment: Neutralization of nadroparin calcium in bovine plasma at 10 to 60 ug/ml by aPTT assay relative to control; format: cell-free; conditions: dose 10-60 µg/ml
Homo sapiens [8] = species: Homo sapiens; experiment: Neutralization of dalteparin sodium in human poor platelet plasma at 10 to 50 ug/ml by aPTT assay relative to control; format: cell-free; conditions: dose 10-50 µg/ml
Bos taurus [9] = species: Bos taurus; experiment: Neutralization of dalteparin sodium in bovine plasma at 10 to 60 ug/ml by aPTT assay; format: cell-free; conditions: dose 10-60 µg/ml
Bos taurus [10] = species: Bos taurus; experiment: Neutralization of enoxaparin sodium in bovine plasma at 10 to 60 ug/ml by aPTT assay; format: cell-free; conditions: dose 10-60 µg/ml
Bos taurus [11] = species: Bos taurus; experiment: Neutralization of dalteparin sodium in bovine plasma at 10 to 60 ug/ml by aPTT assay relative to control; format: cell-free; conditions: dose 10-60 µg/ml
Bos taurus [12] = species: Bos taurus; experiment: Neutralization of unfractionated heparin in bovine plasma at 10 to 60 ug/ml by aPTT assay relative to control; format: cell-free; conditions: dose 10-60 µg/ml
[13] = Binding affinity to nadroparin calcium in saline at pH 7.4 assessed as binding constant by ITC analysis
[14] = Binding affinity to nadroparin calcium in saline at pH 7.4 assessed as change in entropy by ITC analysis
[15] = Binding affinity to dalteparin sodium in saline at pH 7.4 assessed as change in enthalpy by ITC analysis
[16] = Binding affinity to enoxaparin sodium in saline at pH 7.4 assessed as binding constant by ITC analysis
[17] = Binding affinity to enoxaparin sodium in saline at pH 7.4 assessed as change in gibbs free energy by ITC analysis
[18] = Binding affinity to unfractionated heparin in saline at pH 7.4 assessed as change in enthalpy by ITC analysis
[19] = Binding affinity to dalteparin sodium in saline at pH 7.4 assessed as binding constant by ITC analysis
[20] = Binding affinity to unfractionated heparin in saline at pH 7.4 assessed as binding constant by ITC analysis
[21] = Binding affinity to dalteparin sodium in saline at pH 7.4 assessed as change in gibbs free energy by ITC analysis
[22] = Blood compatibility in bovine plasma assessed as activated partial thromboplastin time at <23 ug/ml by turbidimetry method; format: toxicity, cell-free, Bos taurus; conditions: cattle, dose < 23 µg/ml
Erythrocyte [23] = experiment: Hemolytic activity in Sprague-Dawley rat red blood cells at 256 ug/ml; format: toxicity, cell-based; conditions: dose 256 µg/ml
[24] = Binding affinity to enoxaparin sodium in saline at pH 7.4 assessed as change in entropy by ITC analysis
[25] = Binding affinity to enoxaparin sodium in saline at pH 7.4 assessed as change in enthalpy by ITC analysis
[26] = Binding affinity to unfractionated heparin in saline at pH 7.4 assessed as change in entropy by ITC analysis
Erythrocyte [27] = experiment: Hemolytic activity in human red blood cells at 256 ug/ml; format: toxicity, cell-based; conditions: dose 256 µg/ml
[28] = Binding affinity to unfractionated heparin in saline at pH 7.4 assessed as change in gibbs free energy by ITC analysis
[29] = Binding affinity to dalteparin sodium in saline at pH 7.4 assessed as change in entropy by ITC analysis
Homo sapiens [30] = species: Homo sapiens; experiment: Neutralization of dalteparin sodium in human poor platelet plasma at 10 to 50 ug/ml by aPTT assay; format: cell-free; conditions: dose 10-50 µg/ml
[31] = Binding affinity to nadroparin calcium in saline at pH 7.4 assessed as change in gibbs free energy by ITC analysis
[32] = Binding affinity to nadroparin calcium in saline at pH 7.4 assessed as change in enthalpy by ITC analysis
Homo sapiens [33] = species: Homo sapiens; experiment: Reversal of anticoagulation of dalteparin sodium in human whole blood assessed as minimum effective dose incubated for 5 mins by thromboelastography; format: tissue-based
Erythrocyte [34] = experiment: Hemolytic activity in human red blood cells at 512 ug/ml; format: toxicity, cell-based; conditions: dose 512 µg/ml
Homo sapiens [35] = species: Homo sapiens; experiment: Neutralization of enoxaparin sodium in human poor platelet plasma at 10 to 50 ug/ml by aPTT assay; format: cell-free; conditions: dose 10-50 µg/ml
Homo sapiens [36] = species: Homo sapiens; experiment: Reversal of anticoagulation of unfractionated heparin in human whole blood assessed as minimum effective dose incubated for 5 mins by thromboelastography; format: tissue-based
Homo sapiens [37] = species: Homo sapiens; experiment: Reversal of anticoagulation of nadroparin calcium in human whole blood assessed as minimum effective dose incubated for 5 mins by thromboelastography; format: tissue-based
Homo sapiens [38] = species: Homo sapiens; experiment: Reversal of anticoagulation of enoxaparin sodium in human whole blood assessed as minimum effective dose incubated for 5 mins by thromboelastography; format: tissue-based
[39] = Blood compatibility in bovine plasma assessed as activated partial thromboplastin time at <54 ug/ml by turbidimetry method; format: toxicity, cell-free, Bos taurus; conditions: cattle, dose < 54 µg/ml
Erythrocyte [40] = experiment: Hemolytic activity in Sprague-Dawley rat red blood cells at 512 ug/ml; format: toxicity, cell-based; conditions: dose 512 µg/ml

## NCCCOc1ccc(-c2cc[n+](Cc3ccc(C(c4ccc(C[n+]5ccc(-c6ccc(OCCCN)cc6)cc5)cc4)(c4ccc(C[n+]5ccc(-c6ccc(OCCCN)cc6)cc5)cc4)c4ccc(C[n+]5ccc(-c6ccc(OCCCN)cc6)cc5)cc4)cc3)cc2)cc1.[Cl-].[Cl-].[Cl-].[Cl-]
Homo sapiens [1]
  Activity: > 98%
[2]
  MTD at 168 h: 15 mg/kg
Homo sapiens [3]
  Activity: > 98%
Bos taurus [4]
  Activity: Active
Bos taurus [5]
  Activity: Active
Bos taurus [6]
  Activity: > 98%
Bos taurus [7]
  Activity: > 86%
Homo sapiens [8]
  Activity: > 98%
Bos taurus [9]
  Activity: Active
Bos taurus [10]
  Activity: Active
Bos taurus [11]
  Activity: > 98%
Bos taurus [12]
  Activity: > 98%

## NCCSc1ccc(-c2cc[n+](Cc3ccc(C(c4ccc(C[n+]5ccc(-c6ccc(SCCN)cc6)cc5)cc4)(c4ccc(C[n+]5ccc(-c6ccc(SCCN)cc6)cc5)cc4)c4ccc(C[n+]5ccc(-c6ccc(SCCN)cc6)cc5)cc4)cc3)cc2)cc1.[Cl-].[Cl-].[Cl-].[Cl-]
[2]
  MTD at 168 h: 8 mg/kg
Bos taurus [4]
  Activity: Active
Bos taurus [5]
  Activity: Active
Bos taurus [9]
  Activity: Active
Bos taurus [10]
  Activity: Active

## NCCOc1cc(-c2cc[n+](Cc3ccc(C(c4ccc(C[n+]5ccc(-c6cc(OCCN)c(OCCN)c(OCCN)c6)cc5)cc4)(c4ccc(C[n+]5ccc(-c6cc(OCCN)c(OCCN)c(OCCN)c6)cc5)cc4)c4ccc(C[n+]5ccc(-c6cc(OCCN)c(OCCN)c(OCCN)c6)cc5)cc4)cc3)cc2)cc(OCCN)c1OCCN.[Cl-].[Cl-].[Cl-].[Cl-]
[13]
  Ka: 5.43e+06 M⁻¹
[14]
  -TdeltaS: -4.37 kcal/mol
[15]
  deltaH: -4.86 kcal/mol
[16]
  Ka: 4.85e+06 M⁻¹
[17]
  deltaG: -9.12 kcal/mol
[2]
  MTD at 168 h: 20 mg/kg
[18]
  deltaH: -5.33 kcal/mol
[19]
  Ka: 7.09e+06 M⁻¹
[20]
  Ka: 3.72e+06 M⁻¹
[21]
  deltaG: -9.35 kcal/mol
[22]
  APTT: 23 s
Erythrocyte [23]
  Activity: Non-Toxic
[24]
  -TdeltaS: -3.49 kcal/mol
[25]
  deltaH: -5.63 kcal/mol
[26]
  -TdeltaS: -3.64 kcal/mol
Erythrocyte [27]
  Activity: Non-Toxic
Bos taurus [9]
  Activity: Active
[28]
  deltaG: -8.97 kcal/mol
[29]
  -TdeltaS: -4.48 kcal/mol
Homo sapiens [30]
  Activity: Active
[31]
  deltaG: -9.19 kcal/mol
[32]
  deltaH: -4.83 kcal/mol

## NCCOc1ccc(-c2cc[n+](Cc3ccc(C(c4ccc(C[n+]5ccc(-c6ccc(OCCN)cc6)cc5)cc4)(c4ccc(C[n+]5ccc(-c6ccc(OCCN)cc6)cc5)cc4)c4ccc(C[n+]5ccc(-c6ccc(OCCN)cc6)cc5)cc4)cc3)cc2)cc1.[Cl-].[Cl-].[Cl-].[Cl-]
Homo sapiens [33]
  MED: 10 µg/mL
[13]
  Ka: 5e+06 M⁻¹
[14]
  -TdeltaS: -4.77 kcal/mol
[15]
  deltaH: -4.53 kcal/mol
Erythrocyte [34]
  Activity: Non-Toxic
Homo sapiens [35]
  Activity: Active
[16]
  Ka: 4.61e+06 M⁻¹
[17]
  deltaG: -9.09 kcal/mol
[2]
  MTD at 168 h: 17.5 mg/kg
Homo sapiens [36]
  MED: 12 µg/mL
[18]
  deltaH: -4.67 kcal/mol
Homo sapiens [37]
  MED: 10 µg/mL
[19]
  Ka: 8.77e+06 M⁻¹
[20]
  Ka: 4.72e+06 M⁻¹
Homo sapiens [38]
  MED: 10 µg/mL
[21]
  deltaG: -9.47 kcal/mol
[39]
  APTT: 23 s
[24]
  -TdeltaS: -3.23 kcal/mol
[25]
  deltaH: -5.87 kcal/mol
[26]
  -TdeltaS: -4.43 kcal/mol
[28]
  deltaG: -9.11 kcal/mol
[29]
  -TdeltaS: -4.94 kcal/mol
Bos taurus [10]
  Activity: Active
[31]
  deltaG: -9.15 kcal/mol
Erythrocyte [40]
  Activity: Non-Toxic
[32]
  deltaH: -4.38 kcal/mol

## NCCOc1ccc(-n2cc[n+](Cc3ccc(C(c4ccc(C[n+]5ccn(-c6ccc(OCCN)cc6)c5)cc4)(c4ccc(C[n+]5ccn(-c6ccc(OCCN)cc6)c5)cc4)c4ccc(C[n+]5ccn(-c6ccc(OCCN)cc6)c5)cc4)cc3)c2)cc1
Bos taurus [4]
  Activity: Active
Bos taurus [5]
  Activity: Active
Bos taurus [9]
  Activity: Active
Bos taurus [10]
  Activity: Active

## NCCOc1ccc2c[n+](Cc3ccc(C(c4ccc(C[n+]5ccc6cc(OCCN)ccc6c5)cc4)(c4ccc(C[n+]5ccc6cc(OCCN)ccc6c5)cc4)c4ccc(C[n+]5ccc6cc(OCCN)ccc6c5)cc4)cc3)ccc2c1
Bos taurus [4]
  Activity: Active
Bos taurus [5]
  Activity: Active
Bos taurus [9]
  Activity: Active
Bos taurus [10]
  Activity: Active

## Cn1cc[n+](Cc2ccc(C(c3ccc(C[n+]4ccn(C)c4)cc3)(c3ccc(C[n+]4ccn(C)c4)cc3)c3ccc(C[n+]4ccn(C)c4)cc3)cc2)c1
Bos taurus [4]
  Activity: inactive
Bos taurus [5]
  Activity: inactive
Bos taurus [9]
  Activity: inactive
Bos taurus [10]
  Activity: inactive

## c1cc[n+](Cc2ccc(C(c3ccc(C[n+]4ccccc4)cc3)(c3ccc(C[n+]4ccccc4)cc3)c3ccc(C[n+]4ccccc4)cc3)cc2)cc1
Bos taurus [4]
  Activity: inactive
Bos taurus [5]
  Activity: inactive
Bos taurus [9]
  Activity: inactive
Bos taurus [10]
  Activity: inactive

## COc1ccc(-c2cc[n+](Cc3ccc(C(c4ccc(C[n+]5ccc(-c6ccc(OC)cc6)cc5)cc4)(c4ccc(C[n+]5ccc(-c6ccc(OC)cc6)cc5)cc4)c4ccc(C[n+]5ccc(-c6ccc(OC)cc6)cc5)cc4)cc3)cc2)cc1
Bos taurus [4]
  Activity: inactive
Bos taurus [5]
  Activity: inactive
Bos taurus [9]
  Activity: inactive
Bos taurus [10]
  Activity: inactive

## NCC(=O)Nc1ccc(-c2cc[n+](Cc3ccc(C(c4ccc(C[n+]5ccc(-c6ccc(NC(=O)CN)cc6)cc5)cc4)(c4ccc(C[n+]5ccc(-c6ccc(NC(=O)CN)cc6)cc5)cc4)c4ccc(C[n+]5ccc(-c6ccc(NC(=O)CN)cc6)cc5)cc4)cc3)cc2)cc1.[Cl-].[Cl-].[Cl-].[Cl-]
Homo sapiens [1]
  Activity: > 98%
[2]
  MTD at 168 h: 8 mg/kg
Homo sapiens [3]
  Activity: > 98%
Bos taurus [4]
  Activity: Active
Bos taurus [5]
  Activity: Active
Bos taurus [6]
  Activity: > 98%
Homo sapiens [8]
  Activity: > 98%
Bos taurus [9]
  Activity: Active
Bos taurus [10]
  Activity: Active
Bos taurus [11]
  Activity: > 98%
Bos taurus [12]
  Activity: > 98%
